Test system: Alternaria solani
Assay: Activity against early blight of tomato caused by Alternaria solani (protective spray test on potted tomato plants)
Type: in vivo
Details: tomato cultivar Golden Princess, evaluated after 5 days
Procedure: The active compounds, separately or jointly, were prepared as a stock solution comprising 0.25% by weight of active compound in acetone or DMSO. 1% by weight of the emulsifier Uniperol® EL (wetting agent having emulsifying and dispersant action based on ethoxylated alkylphenols) was added to this solution, and the mixture was diluted with water to the desired concentration.
Leaves of potted plants of the cultivar “Golden Princess” were sprayed to runoff point with an aqueous suspension having the concentration of active compound stated below. The next day, the leaves were infected with an aqueous spore suspension of Alternaria solani in a 2% strength biomalt solution having a density of 0.17×10^6 spores/ml. The plants were then placed in a water-vapor-saturated chamber at temperatures between 20 and 22° C. After 5 days, the disease on the untreated but infected control plants had developed to such an extent that the infection could be determined visually in %.
The visually determined percentages of infected leaf areas were converted into efficacies in % of the untreated control:
The efficacy (E) is calculated as follows using Abbot's formula: E=(1−α/β)·100 • α corresponds to the fungal infection of the treated plants in % and • β corresponds to the fungal infection of the untreated (control) plants in %
An efficacy of 0 means that the infection level of the treated plants corresponds to that of the untreated control plants; an efficacy of 100 means that the treated plants were not infected.
The expected efficacies of mixtures of active compounds were determined using Colby's formula (Colby, S. R. “Calculating synergistic and antagonistic responses of herbicide combinations”, Weeds, 15, 20-22, 1967) and compared with the observed efficacies.
Colby's formula: E=x+y−x·y/100 • E expected efficacy, expressed in % of the untreated control, when using the mixture of the active compounds A and B at the concentrations a and b • x efficacy, expressed in % of the untreated control, when using the active compound A at the concentration a
y efficacy, expressed in % of the untreated control, when using the active compound B at the concentration b

CO/N=C(\Cc1cccnc1)c1cc(Cl)cc(Cl)c1 [II (pyrifenox), 1-(3,5-dichlorophenyl)-2-pyridin-3-ylethanone-O-methyloxime]
Efficacy in % of the untreated control (1 ppm active compound in the spray liquor): 0%
Efficacy in % of the untreated control (6.25 ppm active compound in the spray liquor): 0%

CC1CCN(c2c(-c3c(F)cc(F)cc3F)c(Cl)nc3ncnn23)CC1 [I, 5-chloro-7-(4-methylpiperidin-1-yl)-6-(2,4,6-trifluorophenyl)-[1,2,4]triazolo[1,5-a]pyrimidine]
Efficacy in % of the untreated control (1.25 ppm active compound in the spray liquor): 0%
Efficacy in % of the untreated control (5 ppm active compound in the spray liquor, infected next day): 22%
